Patent publication US7070983B2, “Mutant Pseudomonas putida strains and methods of use thereof” (priority 2003, dated 2006)

Legend:
[1] = test system: P. putida wild-type KH146-2; type: cell-based, Pseudomonas putida; conditions: LBH medium, 30° C., 3 days
Description: (§1) Pseudomonas putida KH146-2 was originally isolated from soil for the capability of growing in the presence of 4-hydroxybenzoate (Chen et al., ((1998) Res Communs Biochem and Cell & Mol Biol 2: 253–274)). HBM medium consists of 50 mM sodium potassium phosphate buffer (pH6.8), 0.1% (NH4)2SO4 and Hutner's base. Hutner's base cotained (per liter) nitrilotriacetic acid, 200 mg; CaCl2.2H2O, 67 mg; (NH4)6Mo7O24.4H2O, 185 μg; MgSO4, 289 mg; EDTA, 2.5 mg; ZnSO4.7H2O, 11 mg; FeSO4.7H2O, 7 mg; MnSO4.H2O, 1.5 mg; CuSO4.5H2O, 390 μg; Co(NO3)2.6H2O, 250 μg, and Na2B4O7.10H2O, 180 μg. LB medium contains 1% tryptone, 0.5% yeast extract, and 1% NaCl (adjusted pH 6.8). LBH medium contains 1% tryptone and 0.5% yeast extract in HBM medium. The bacteria were grown at 30° C. in a shaker at 200 rpm. For tolerance tests, HBM or LBH agar plates containing serially increasing concentrations of an organic chemical were employed. Routinely, 20 to 40 bacterial strains were spot-transplanted with the aid of tooth pick on an agar plate, followed by incubation at 30° C. for 3 days.

[2] = test system: 4HBA-tolerant Str, Gen and Rif mutants of P. putida KH146-2; type: cell-based, Pseudomonas putida; conditions: for Tolerance of mutants relative to wild-type: Str mutants and Rif mutants tested, in words
Description: as §1
Using several strains randomly chosen as representatives of 4HBA-tolerant mutants, we examined the tolerance level to various organic compounds. […] Tolerance levels to other organic compounds were also examined.

[3] = test system: P. putida strain no. 15 (Rif mutant); test: Tolerance test (MIC) on agar plates; type: cell-based, Pseudomonas putida
Description: as §1

[4] = test system: P. putida strain no. 17 (Rif mutant); test: Tolerance test (MIC) on agar plates; type: cell-based, Pseudomonas putida
Description: as §1

[5] = test system: P. putida strain no. 9 (Str mutant); test: Tolerance test (MIC) on agar plates; type: cell-based, Pseudomonas putida
Description: as §1

[6] = test system: P. putida strain no. 14 (Rif mutant); test: Tolerance test (MIC) on agar plates; type: cell-based, Pseudomonas putida
Description: as §1

[7] = test system: P. putida strain no. 3 (Str mutant); test: Tolerance test (MIC) on agar plates; type: cell-based, Pseudomonas putida
Description: as §1

[8] = test system: P. putida strain no. 12 (Gen mutant); test: Tolerance test (MIC) on agar plates; type: cell-based, Pseudomonas putida
Description: as §1

[9] = test system: Str and Rif mutants; type: cell-based, Pseudomonas putida
Description: (§2) The method described by Thanassi et al. ((1995) J Bacteriol 177:998–1007) was used with some modifications. The bacteria were grown to mid-log phase in HBM medium containing 0.3% 4HBA, washed and resuspended in 0.3% succinate-HBM medium to give OD660=0.7. A 5 ml-aliquot of the bacterial suspension in a 100 ml flask was incubated in a shaker bath. A 0.5 μCi [carboxyl-^14C]4HBA (55 mCi mmol^−1, ARC.) with unlabelled 4HBA at increasing concentrations, were added to the 5 ml bacterial suspension and incubation was continued. At the indicated time, a 0.5 ml aliquot of sample was removed and filtered using a nitrocellulose filter (0.45 μm pore size, Millipore Corp, Bedford, Mass.) which had previously been washed with 2 ml of HBM medium containing 5 mM 4HBA. The sample was applied with a Pipetman, followed by immediate washing with 3 ml of 5 mM 4HBA-HBM medium. The membrane filter was dried, and transferred to a scintillation vial containing Brey's solution, and radioactivity was measured in scintillation spectrometer. From the rate of uptake and the concentration of 4HBA, apparent Km was determined by reciprocal plotting as described by Beman et al ((1983) J Bacteriol 156:1107–1117).
(§3) Therefore, we first grew cells to mid-log phase in HBM medium containing 0.3% 4HBA and succinate, washed, and resuspended in HBM medium containing only succinate. […]

[10] = test system: Strain no. 55 (Str Gen double mutant); test: 4HBA tolerance after growth on LB without 4HBA; type: cell-based, Pseudomonas putida; conditions: strains grown once on LB medium without 4HBA
[11] = test system: P. putida strain no. 20 (Rif mutant); test: Tolerance test (MIC) on agar plates; type: cell-based, Pseudomonas putida; conditions: LBH medium
Description: as §1

[12] = test system: P. putida strain no. 18 (Rif mutant); test: Tolerance test (MIC) on agar plates; type: cell-based, Pseudomonas putida; conditions: LBH medium
Description: as §1

[13] = test system: 4HBA-adapted mutants of wild-type strain KH146-2; test: 4HBA tolerance by sequential adaptation; type: cell-based, Pseudomonas putida; conditions: mutants obtained by step by step adaptation
Description: Wild-type strain KH146-2 was adapted, step by step, to grow in HBM medium containing increasing concentrations (from 0.8% to 5%) of 4HBA. In steps using high concentrations (>3%) of 4HBA, adaptation required a longer term incubation (7˜10 days) for each step. In certain steps, the 4HBA-adapted mutants were isolated using agar plates (containing the adapted concentrations of 4HBA), on which tolerant mutants formed big size colonies.

[14] = test system: wild-type KH146-2; conditions: read-out: apparent Km of 4HBA uptake; wild-type strain; 50 to 500 μM 4HBA
Description: as §2
(§4) Therefore, we first grew cells to mid-log phase in HBM medium containing 0.3% 4HBA and succinate, washed, and resuspended in HBM medium containing only succinate. [^14C]4HBA was then added with unlabeled 4HBA at various (50 to 500 μM) concentrations.

[15] = test system: Rif mutant no. 17; conditions: read-out: apparent Km of 4HBA uptake, 50 to 500 μM 4HBA
Description: as §2, §4

[16] = test system: Str mutant no. 3; conditions: read-out: apparent Km of 4HBA uptake, 50 to 500 μM 4HBA
Description: as §2, §4

[17] = test system: wild-type and mutant strains; test: Determination of protein synthesis ([14C]leucine incorporation); type: cell-based, Pseudomonas putida; conditions: absence or presence (0.6 or 1.2%) of 4HBA; data not shown
[18] = test system: Str Gen double mutant no. 55; test: Uptake of [14C]4HBA; type: cell-based, Pseudomonas putida; conditions: [14C]4HBA at 100 μM, FIG. 3
Description: as §2, §3

[19] = test system: strain no. 3 carrying plasmid pYI433 containing the wild-type rpsL gene; test: Complementation experiment, 4HBA-tolerance; type: cell-based, Pseudomonas putida; conditions: strain no. 3 with plasmid containing the rpsL gene
From the text: (§5) To clone the rpsL gene, a 0.9-kb DNA region covering whole rpsL was amplified from the chromosomal DNA of P. putida KH146-2 using KDO DNA polymerase (Toyobo Biochemicals, Osaka). Oligonucleotide primers were designed according to the rpoC-rpsL-rpsG sequence of P. putida KT2440 (www.tigr.org); 5′-[…]-3′ (SEQ ID NO:7—nucleotides [nt]−368 to −341 upstream of rpsL) and 5′-[…]-3′ (SEQ ID NO:8—complementary to nt 107 to 135 downstream of rpsL). The amplified DNA fragments were cloned into plasmid pUC118 (Vieira and Messing, (1987) Methods Enzymol 153: 3–11) to confirm the sequence, then excised from the plasmids as a BamHI-SphI fragment using the restriction sites in the multi-cloning sequence of the vector and inserted between the BglII and SphI sites of the E. coli-Pseudomonas shuttle vector pNIT6010 carrying tet^R, a derivative of pNIT6011 (Nishijyo et al. (2001) Mol Microbiol 40:917–931). The resultant plasmid pYI433, as well as vector control pNIT6010, was introduced into the Str mutant no. 3 (str-1) by conjugation using E. coli HB101/pRK2013 as the helper (Comai et al. (1983) Plasmid 10:21–30). Fifty μg ml^−1 of tetracycline was used for selection of transformants.
(§6) […]

[20] = test system: strain no. 3 harbouring a plasmid without rpsL; test: Complementation experiment, 4HBA-tolerance; type: cell-based, Pseudomonas putida
From the text: as §5, §6

[21] = test system: Str and Rif mutants; test: Organic solvent tolerance, growth in saturated LBH medium; type: cell-based, Pseudomonas putida; conditions: 3% MeOH-LBH medium saturated with toluene
[22] = test system: KH146-2; test: as above; type: cell-based, Pseudomonas putida; conditions: 3% MeOH-LBH medium saturated with toluene
[23] = HBM medium, 4HBA as a sole carbon source

O=C(O)c1ccccc1 [BA, benzoic acid]
Tolerance (MIC) [1]: 0.8 ± 0.2%
Tolerance of mutants relative to wild-type [2]: slight or no increase of tolerance
Tolerance (MIC) ([3]; LBH medium): 1.0 ± 0.1%
Tolerance (MIC) ([4]; LBH medium): 1.1 ± 0.1%
Tolerance (MIC) ([5]; LBH medium): 0.9 ± 0.1%
Tolerance (MIC) ([6]; LBH medium): 1.1 ± 0.1%
Tolerance (MIC) ([7]; LBH medium): 1.0 ± 0.1%
Tolerance (MIC) ([8]; LBH medium): 1.0 ± 0.1%

O=C(O)c1cccc(O)c1 [3HBA, 3-hydroxybenzoate]
Tolerance (MIC) [1]: 1.4 ± 0.1%
Tolerance of mutants relative to wild-type [2]: modest increment of tolerance
Tolerance (MIC) ([3]; LBH medium): 1.9 ± 0.2%
Tolerance (MIC) ([4]; LBH medium): 1.8 ± 0.3%
Tolerance (MIC) ([5]; LBH medium): 1.8 ± 0.1%
Tolerance (MIC) ([6]; LBH medium): 1.9 ± 0.1%
Tolerance (MIC) ([7]; LBH medium): 1.8 ± 0.2%
Tolerance (MIC) ([8]; LBH medium): 1.9 ± 0.2%

O=C(O)c1cc(Cl)ccc1O [5-chlorosalicylate]
Tolerance of mutants relative to wild-type [2]: increased tolerance

O=C(O)c1ccccc1Cl [2CB, 2-chlorobenzoate]
Tolerance (MIC) [1]: 1.5 ± 0.2%
Tolerance of mutants relative to wild-type [2]: modest increment of tolerance
Tolerance (MIC) ([3]; LBH medium): 2.0 ± 0.2%
Tolerance (MIC) ([4]; LBH medium): 2.1 ± 0.2%
Tolerance (MIC) ([5]; LBH medium): 1.7 ± 0.2%
Tolerance (MIC) ([6]; LBH medium): 1.9 ± 0.2%
Tolerance (MIC) ([7]; LBH medium): 1.9 ± 0.2%
Tolerance (MIC) ([8]; LBH medium): 1.9 ± 0.3%

isonicotinate
Tolerance of mutants relative to wild-type [2]: increased tolerance

O=C(O)c1ccc(F)cc1 [4-fluorobenzoate]
Tolerance of mutants relative to wild-type [2]: increased tolerance

O=C(O)c1ccccc1O [2HBA, 2-hydroxybenzoate]
Tolerance (MIC) [1]: 0.8 ± 0.1%
Tolerance of mutants relative to wild-type [2]: slight or no increase of tolerance
Tolerance (MIC) ([3]; LBH medium): 0.8 ± 0.1%
Tolerance (MIC) ([4]; LBH medium): 0.7 ± 0.1%
Tolerance (MIC) ([5]; LBH medium): 0.8 ± 0.1%
Tolerance (MIC) ([6]; LBH medium): 0.8 ± 0.1%
Tolerance (MIC) ([7]; LBH medium): 0.9 ± 0.1%
Tolerance (MIC) ([8]; LBH medium): 0.8 ± 0.1%

O=C(O)c1ccc(O)cc1 [4HBA, 4-hydroxybenzoate]
Km values greater than wild-type ([9]; Str and Rif mutants vs wild-type): 2 to 3 fold
apparent uptake by the membrane transport system, reduction compared to wild-type ([9]; the mutants vs wild-type strain): 2 to 3 fold
Tolerance to 4HBA ([10]; 3% 4HBA): still showed a tolerance
Growth on 4HBA-containing medium ([10]; 5% 4HBA): no longer grew
Tolerance (MIC) [1]: 1.4 ± 0.1%
minimum inhibitory concentration (MIC) ([2]; the mutants, 4HBA as the sole carbon source): 1.7%
Tolerance (MIC) [3, 23]: (1.2 ± 0.2) %
Tolerance (MIC) ([3]; LBH medium): 1.8 ± 0.2%
Tolerance (MIC) [11]: 1.9 ± 0.1%
Tolerance (MIC) [4, 23]: (1.3 ± 0.1) %
Tolerance (MIC) ([4]; LBH medium): 1.8 ± 0.2%
Tolerance (MIC) [5, 23]: (1.3 ± 0.2) %
Tolerance (MIC) ([5]; LBH medium): 1.6 ± 0.2%
Tolerance (MIC) [6, 23]: (1.4 ± 0.2) %
Tolerance (MIC) ([6]; LBH medium): 1.8 ± 0.2%
Tolerance (MIC) [7, 23]: (1.7 ± 0.1) %
Tolerance (MIC) ([7]; LBH medium): 1.9 ± 0.1%
Tolerance (MIC) [12]: 2.0 ± 0.2%
Tolerance (MIC) [8, 23]: (1.6 ± 0.2) %
Tolerance (MIC) ([8]; LBH medium): 1.9 ± 0.3%
4HBA concentration tolerated [13]: up to 5%
Km [14]: 240 µM
Km [15]: 620 µM
Km [16]: 470 µM
degree of suppression of protein synthesis, wild-type vs mutant strains [17]: no difference
uptake of 4HBA [18]: reduced uptake
4HBA-tolerance [19]: 1%
4HBA-tolerance [20]: 1.6%

Cc1ccccc1 [toluene]
growth [21]: grew normally
growth [22]: somewhat retarded
